Columns and labels:
[1] = test system: Rat hepatocytes; experiment: Hepatocyte clearance, rat hepatocytes; assay type: in vitro ADME; details: percent unchanged
[2] = molecular target: T1, F508del-CFTR (Homo sapiens, UniProt P13569, DEL508-508); experiment: Membrane potential optical (FLIPR) assay for F508del-CFTR modulators in NIH 3T3 cells; assay type: cell-based; details: NIH 3T3 cells expressing F508del; assay A1; read-out: CFTRdF508 Cor 3T3 FLIPR 384 CFTRdF508 MP 3T3 770 EC50
T1 construct: expressed in transfected cells
In short: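 NIH3T3 mouse fibroblasts stably expressing F508del, seeded on matrigel and cultured 18-24 h at 37 °C; for correction, cells were cultured with or without compound for 18-24 h. Cells were loaded with voltage-sensing dye, then compound was added in one step with a chloride gradient (chloride replaced by gluconate). Membrane potential was read by fluorescence.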

[3] = test system: MDCK-Wild Type; experiment: MDCK-Wild Type permeability, 96 well + 0.1% BSA; assay type: in vitro ADME; details: A-B direction
[4] = molecular target: T2, human PXR (Homo sapiens, UniProt O75469); experiment: PXR assay: PXR mediated CYP3A4 induction in DPX-2 cell line; assay type: cell-based; details: DPX-2 cells
T2 construct: host or cells: DPX-2 cell line (derived from HepG2)
T2 sequence (O75469 1-434): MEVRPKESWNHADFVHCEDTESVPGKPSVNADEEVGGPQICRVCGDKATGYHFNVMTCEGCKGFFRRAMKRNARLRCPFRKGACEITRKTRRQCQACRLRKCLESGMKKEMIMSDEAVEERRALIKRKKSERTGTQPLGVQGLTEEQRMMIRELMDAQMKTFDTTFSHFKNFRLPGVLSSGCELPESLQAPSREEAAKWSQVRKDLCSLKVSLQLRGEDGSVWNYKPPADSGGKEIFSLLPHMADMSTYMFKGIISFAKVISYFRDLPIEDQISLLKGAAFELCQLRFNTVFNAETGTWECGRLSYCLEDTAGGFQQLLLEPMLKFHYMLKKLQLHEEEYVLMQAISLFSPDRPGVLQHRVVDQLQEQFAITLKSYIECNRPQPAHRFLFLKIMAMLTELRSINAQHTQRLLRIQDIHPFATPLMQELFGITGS
In short: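 HepG2-derived DPX-2 cells stably carrying human PXR and a CYP3A4 promoter/enhancer–luciferase reporter; 11 doses from 0.1 to 60 μM for 48 h, rifampicin as positive control. Viability read by fluorescence, then luciferase luminescence; max fold induction over vehicle and EC50 reported.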

T1 sequence (P13569 with tags, fused parts or gaps DEL508-508): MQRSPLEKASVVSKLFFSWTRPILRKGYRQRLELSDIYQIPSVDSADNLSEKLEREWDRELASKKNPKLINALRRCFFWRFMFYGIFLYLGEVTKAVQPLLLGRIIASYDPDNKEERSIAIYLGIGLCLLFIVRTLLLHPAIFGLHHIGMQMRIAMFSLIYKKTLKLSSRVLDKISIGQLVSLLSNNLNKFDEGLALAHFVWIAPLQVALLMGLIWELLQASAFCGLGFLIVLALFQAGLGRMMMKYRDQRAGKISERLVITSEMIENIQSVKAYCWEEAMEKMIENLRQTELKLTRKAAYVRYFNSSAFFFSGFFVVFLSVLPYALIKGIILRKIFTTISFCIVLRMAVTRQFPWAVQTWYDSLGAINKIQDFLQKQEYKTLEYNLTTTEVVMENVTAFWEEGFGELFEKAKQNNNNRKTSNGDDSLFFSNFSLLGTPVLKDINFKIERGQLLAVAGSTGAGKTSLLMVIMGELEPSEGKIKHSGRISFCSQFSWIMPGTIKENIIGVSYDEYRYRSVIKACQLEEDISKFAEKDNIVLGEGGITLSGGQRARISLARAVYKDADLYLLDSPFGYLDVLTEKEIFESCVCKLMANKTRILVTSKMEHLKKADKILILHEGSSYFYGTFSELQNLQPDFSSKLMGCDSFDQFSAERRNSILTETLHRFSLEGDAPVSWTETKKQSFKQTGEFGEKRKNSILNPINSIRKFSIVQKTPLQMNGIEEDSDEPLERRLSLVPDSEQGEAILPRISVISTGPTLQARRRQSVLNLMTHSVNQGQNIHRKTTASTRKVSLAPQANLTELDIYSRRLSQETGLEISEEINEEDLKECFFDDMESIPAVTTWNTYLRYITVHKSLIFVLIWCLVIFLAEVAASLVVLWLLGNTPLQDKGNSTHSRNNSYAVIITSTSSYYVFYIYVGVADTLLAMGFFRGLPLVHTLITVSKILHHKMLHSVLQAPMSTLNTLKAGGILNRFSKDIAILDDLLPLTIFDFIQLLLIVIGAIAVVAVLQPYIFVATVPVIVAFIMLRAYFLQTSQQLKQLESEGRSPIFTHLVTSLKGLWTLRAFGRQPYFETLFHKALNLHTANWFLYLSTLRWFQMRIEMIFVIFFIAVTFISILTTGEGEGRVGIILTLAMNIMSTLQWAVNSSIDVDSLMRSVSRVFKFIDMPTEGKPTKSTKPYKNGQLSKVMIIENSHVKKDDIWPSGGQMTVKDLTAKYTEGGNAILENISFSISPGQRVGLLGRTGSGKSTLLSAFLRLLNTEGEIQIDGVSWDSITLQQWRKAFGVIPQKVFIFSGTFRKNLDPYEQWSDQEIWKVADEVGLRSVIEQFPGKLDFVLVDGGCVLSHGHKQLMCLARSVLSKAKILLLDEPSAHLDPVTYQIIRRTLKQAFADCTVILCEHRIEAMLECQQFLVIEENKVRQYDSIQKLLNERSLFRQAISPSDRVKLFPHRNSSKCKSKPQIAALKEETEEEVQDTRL

SMILES: Cc1nn(C)cc1S(=O)(=O)NC(=O)c1ccc(-n2ccc(OC3CC3C(F)(F)F)n2)nc1N1C[C@@H](C)CC1(C)C (stereo partly drawn) [Compound 35, N-(1,3-dimethylpyrazol-4-yl)sulfonyl-6-[3-[2-(trifluoromethyl)cyclopropoxy]pyrazol-1-yl]-2-[(4S)-2,2,4-trimethylpyrrolidin-1-yl]pyridine-3-carboxamide]
- Hepatocyte clearance-Rat Rat hepatocytes CL pct_unchanged [1]: 54%
- EC50 [2]: 1400 nM
- MDCK-Wild Type-Permeability 96 well + 0.1% BSA Papp compound (A-B) [3]: 5.5 10E-6 cm/s
- CYP3A4 Induction-PXR human PXR internal Max % Activity [4]: 21%

Reference: patent US10793547B2, “Modulator of the cystic fibrosis transmembrane conductance regulator, pharmaceutical compositions, methods of treatment, and process for making the modulator” (Vertex Pharmaceuticals Incorporated, priority 2016, dated 2020)
